≈ marks a conversion by molar mass, not a printed value.
Legend:
[1] = tested on: Pseudomonas aeruginosa strains
human red blood cells = assay: Hemolysis time study (0-8 hours, 8-500 μg/ml)
Experimental: The percent hemolysis of cells was determined spectrophotometrically by comparison with the complete hemolysis of cells in water.
[…] Peptide samples were diluted 2 fold in order to determine the concentration that produced no hemolysis. […] Hemoglobin release was determined spectrophotometrically at 562 nm. The hemolytic titer was the highest 2-fold dilution of the peptide that still caused release of hemoglobin from erythrocytes. The control for no release of hemoglobin was a sample of 1% erythrocytes without any peptide added. […] Peptide samples were diluted 2 fold in order to determine the concentration that produced no hemolysis. […] Hemoglobin release was determined spectrophotometrically at 570 nm. The hemolytic titer was the highest 2-fold dilution of the peptide that still caused release of hemoglobin from erythrocytes. The control for no release of hemoglobin was a sample of 1% erythrocytes without any peptide added.

E. faecalis = conditions: wild type strain
Experimental: (§1) Measurement of Antimicrobial Activity—Minimal inhibitory concentrations (MICs) were determined using a standard microtiter dilution method in LB (Luria-Bertani) no-salt medium (10 g of tryptone and 5 g of yeast extract per liter). Briefly, cells were grown overnight at 37° C. in LB and diluted in the same medium. […] Plates were incubated at 37° C. for 24 hours and MICs determined as the lowest peptide concentration that inhibited growth. Alternatively, minimal inhibitory concentrations were determined using a standard microtiter dilution method in a Mueller-Hinton (MH) medium. Briefly, cells were grown overnight at 37° C. in MH broth and diluted in the same medium. […] Plates were incubated at 37° C. for 24 hours and MICs determined as the lowest peptide concentration that inhibited growth. However, for MIC determination of Pseudomonas aeruginosa clinical isolates, brain heart infusion (BH1) medium was used instead of MH broth. In addition, the bacteria were diluted to a final inoculum of 1×10^6 colony-forming units/ml.

C. albicans = conditions: fungus
Experimental: as §1

gram-positive bacteria = conditions: geometric mean of MIC values from all 6 gram-positive strains of Table 12
Experimental: as §1

human erythrocytes = assay: Hemolytic activity (MHC), Protocol B, 18 hours; conditions: for MHC (μg/ml) hRBC: maximal peptide concentration with no hemolysis after 18 hours
Summary of the method: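 Hemolysis of 1% human erythrocytes in phosphate-buffered saline by 2-fold diluted D-peptides, incubated 18 h at 37 °C; hemoglobin release read spectrophotometrically. Value is the maximal peptide concentration producing no hemolysis, relative to erythrocytes without peptide.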

[2] = tested on: Staphylococcus epidermidis
gram-negative bacteria = assay: MIC, microtiter dilution, Gram-negative bacteria (geometric mean of 6 strains); assay type: cell-based; conditions: geometric mean of MIC values from all 6 Gram-negative strains of Table 11
Experimental: (§2) The geometric mean MIC values from 6 microbial strains in this table were calculated to provide an overall evaluation of antimicrobial activity against gram-negative bacteria.
In Table 11, geometric mean MIC was calculated to provide an overall view of antimicrobial activity of the peptides against Gram-negative bacteria and was also used to calculate the therapeutic index.
as §1

[3] = Salmonella typhimurium wild-type lab strain
Experimental: as §2, §1

P. aeruginosa H187 wt = tested on: P. aeruginosa H187 wt
Experimental: as §2, §1

S. typhimurium C610 abs = conditions: Salmonella typhimurium antibiotic sensitive strain
Experimental: as §2, §1

[4] = tested on: E. coli (UB 1005 wt and DC2 abs)
Experimental: as §2, §1

[5] = 50% TFE, 5° C., previous study (29); cited from earlier work
[6] = RP-HPLC temperature profiling (hydrophobicity and self-association/dimerization parameter PA); assay type: physicochemical
Experimental: The retention time data for the peptides is shown in Table 5 which records retention times at 5° C., the maximal retention times and retention times at 80° C. during the temperature profiling. Temperatures of 5° C. and 80° C. were the lower and upper temperature limits of temperature profiling in RP-HPLC, representing dimerization of the peptides at 5° C. and the monomerization of peptides at 80° C. due to dissociation of the dimers. The maximal retention times represent the threshold points at which peptides transform from dimeric to monomeric form. Among the non-polar face substituted peptides, peptides with more hydrophobic substitutions (whether L- or D-amino acid substitutions) were more retained during RP-HPLC, i.e., peptides were eluted in the order of Lys, Gly, Ser, Ala, Val and Leu (Table 5). In addition, on the non-polar face, the L-analogs were always more retained than the D-diastereomers (Table 5, FIG. 5). […] In contrast, on the polar face, the elution order of peptides was not correlated with the order of amino acid side-chain hydrophobicity, e.g., PAL and PSL were more retained than PVL (Table 5); PSD was the most retained peptide among the D-amino acid substituted analogs on the polar face (Table 5).
The ability of the D-peptides to self-associate was determined by RP-HPLC temperature profiling. […] As expected, L- and D-peptide enantiomers were totally inseparable over this temperature range, since each pair of peptides is identical in sequence and must adopt identical conformations on interacting with the reversed-phase matrix, whether in an all-L- or all-D-conformation. RP-HPLC retention behavior has been frequently utilized to represent overall peptide hydrophobicity (53, 26). In the present study, the hydrophobicity of the three peptide pairs is in the order V681/D-V681>[…]>NKL/D-NKD (Table 4), which agrees with the change in hydrophobicity of the substitutions at position 13 in order of the most hydrophobic to the least hydrophobic amino acid residue (Val in V681>Ala in NA>Lys in NK) (54). […] For example, the retention times of peptides V681/D-V681 increase with increasing temperature (up to ˜30° C.) followed by a retention time decrease with a further temperature increase. […] Since peptide C is a monomeric random coil peptide in both aqueous and hydrophobic media, its retention behavior over the temperature range 5° C. to 80° C. represents only general temperature effects on peptide retention behavior, i.e., a linear decrease in peptide retention time with increasing temperature due to greater solute diffusivity and enhanced mass transfer between the stationary and mobile phases at higher temperatures (55). Thus, after normalization to the retention times of peptide C, the retention behavior of the peptides represents only peptide self-association ability. Note that the higher the PA value, the greater the self-association ability. […] From Table 4, it is also clear that the peptide retention times at 80° C. are dramatically lower than those at 5° C.
Elution times during RP-HPLC have frequently been utilized as a measure of relative hydrophobicity of peptide analogs (26, 31). In the current study, peptide analogs differed only by a single amino acid substitution on either the non-polar face or the polar face of V681; thus, the retention time data in Table 5 can be considered to reflect the hydrophobicity difference between peptide analogs. In order to more easily visualize the variation in hydrophobicity of the peptide analogs, the retention time data in Table 5 were normalized relative to that of the native peptide V681 at 5° C. and 80° C., respectively. Hydrophobicity relative to the native peptide V681 indicates an increase or decrease of the apparent peptide hydrophobicity with the different amino acid substitutions on the polar or non-polar face. […]

## CC[C@@H](C)[C@@H](NC(=O)[C@@H](C)NC(=O)[C@@H](CCCCN)NC(=O)[C@@H](CC(C)C)NC(=O)[C@@H](C)NC(=O)[C@H](NC(=O)[C@@H](Cc1c[nH]cn1)NC(=O)[C@@H](CC(C)C)NC(=O)[C@H](NC(=O)[C@H](NC(=O)[C@@H](CCCCN)NC(=O)[C@H](C)NC(=O)[C@@H](C)NC(=O)[C@@H](CO)NC(=O)[C@@H](CCCCN)NC(=O)[C@@H](Cc1ccccc1)NC(=O)[C@H](NC(=O)[C@@H](CCCCN)NC(=O)[C@@H](CC(C)C)NC(=O)[C@@H](Cc1ccccc1)NC(=O)[C@@H](CO)NC(=O)[C@@H](CCCCN)NC(=O)[C@@H](Cc1c[nH]c2ccccc12)NC(=O)[C@@H](CCCCN)NC(C)=O)[C@H](C)O)[C@H](C)O)C(C)C)[C@H](C)O)C(=O)N[C@H](CO)C(=O)N[C@H](CO)C(N)=O [D-NAL]
[1]; geometric mean of six Pseudomonas aeruginosa clinical isolates
  MIC GM: 13.9 µg/mL (≈ 4.74 µM)
[1]; strain CP 204
  MIC CP 204: 7.8 µg/mL (≈ 2.66 µM)
[1]; strain M 2
  MIC M 2: 15.6 µg/mL (≈ 5.32 µM)
[1]; strain PA 14
  MIC PA 14: 7.8 µg/mL (≈ 2.66 µM)
[1]; strain PAK
  MIC PAK: 31.3 µg/mL (≈ 10.7 µM)
[1]; strain PAO 1
  MIC PAO 1: 7.8 µg/mL (≈ 2.66 µM)
[1]; strain WR 5
  MIC WR 5: 31.3 µg/mL (≈ 10.7 µM)
Human red blood cells; 500 μg/ml, after 1 hour incubation
  hemolysis of human red blood cells: approximately 40%
Human red blood cells; peptide concentration of 32 μg/ml
  hemolysis of human red blood cells: negligible hemolysis
E. faecalis
  MIC (μg/ml) E. faecalis C625 wt: 12.5 µg/mL (≈ 4.26 µM)
C. albicans
  MIC (μg/ml) C. albicans: 12.5 µg/mL (≈ 4.26 µM)
gram-positive bacteria
  MIC (μg/ml) GM: 2.8 µg/mL (≈ 0.954 µM)
Human erythrocytes; fold decrease in hemolytic activity compared to V681, 18 hours
  Hemolytic activity Fold: 4
Human erythrocytes; maximal peptide concentration producing no hemolysis after 18 hours, 37° C.
  Hemolytic activity MHC: 31.3 µg/mL
Human erythrocytes; Table 11
  MHC (μg/ml) hRBC: 31.3 µg/mL
Human erythrocytes; Table 12
  MHC (μg/ml) hRBC: 31.3 µg/mL
[2]
  MIC (μg/ml) S. epidermidis C621 wt: 1.6 µg/mL (≈ 0.545 µM)
Bacillus subtilis
  MIC (μg/ml) B. subtilis C971 wt: 1.6 µg/mL (≈ 0.545 µM)
Staphylococcus aureus
  MIC (μg/ml) S. aureus 622 wt: 3.1 µg/mL (≈ 1.06 µM)
  MIC (μg/ml) S. aureus 623 methR: 3.1 µg/mL (≈ 1.06 µM)
Corynebacterium xerosis
  MIC (μg/ml) C. xerosis C875 wt: 1.6 µg/mL (≈ 0.545 µM)
gram-negative bacteria
  MIC (μg/ml) GM: 3.9 µg/mL (≈ 1.33 µM)
[3]
  MIC (μg/ml) St C587 wt: 12.5 µg/mL (≈ 4.26 µM)
P. aeruginosa H187 wt; Pseudomonas aeruginosa antibiotic sensitive strain
  MIC (μg/ml) Pa H188 abs: 3.1 µg/mL (≈ 1.06 µM)
P. aeruginosa H187 wt; Pseudomonas aeruginosa wild-type lab strain
  MIC (μg/ml) Pa H187 wt: 3.1 µg/mL (≈ 1.06 µM)
S. typhimurium C610 abs
  MIC (μg/ml) St C610 abs: 3.1 µg/mL (≈ 1.06 µM)
[4]; antibiotic sensitive strain
  MIC (μg/ml) E. coli C500 abs: 3.1 µg/mL (≈ 1.06 µM)
[4]; wild-type lab strain
  MIC (μg/ml) E. coli C498 wt: 3.1 µg/mL (≈ 1.06 µM)

## Ac-ELEKGGLEGEKGGKELEK-amide (Ac-ELEKGGLEGEKGGKELEK-NH2) [peptide C, reference compound]
[5]
  [θ]222: −3,950
[6]; RP-HPLC retention time at 5° C. during temperature profiling (measure of hydrophobicity)
  tR (min) 5° C.: 22.74 min
[6]; RP-HPLC retention time at 80° C. during temperature profiling
  tR (min) 80° C.: 18.64 min

— patent US8252737B2, “Antimicrobial peptides and methods of use” (priority 2004, dated 2012)
